pIC50: −log10 of the molar value.

Usually pIC50 stands for the negative decadic logarithm of the IC50, by convention in mol/L. Lower therefore signals a high IC50.

The target of this assay is human chemokine receptor CXCR7 (Homo sapiens (Human), UniProt P25106). In words: Tango CXCR7-bla U2OS beta-arrestin recruitment assay (beta-lactamase reporter, FRET), antagonism of CXCL12/SDF1-α.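 Further: compounds preincubated 15 min before CXCL12 addition, then 22 h at 37 °C, FRET emission ratio read with CCF4-AM substrate after 2 h.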 Format: cell-based. Conditions: antagonistic effect on CXCR7; Tango CXCR7-bla U2OS cells, CXCL12/SDF1-α at its EC80.
Chain of human chemokine receptor CXCR7 (P25106 whole entry): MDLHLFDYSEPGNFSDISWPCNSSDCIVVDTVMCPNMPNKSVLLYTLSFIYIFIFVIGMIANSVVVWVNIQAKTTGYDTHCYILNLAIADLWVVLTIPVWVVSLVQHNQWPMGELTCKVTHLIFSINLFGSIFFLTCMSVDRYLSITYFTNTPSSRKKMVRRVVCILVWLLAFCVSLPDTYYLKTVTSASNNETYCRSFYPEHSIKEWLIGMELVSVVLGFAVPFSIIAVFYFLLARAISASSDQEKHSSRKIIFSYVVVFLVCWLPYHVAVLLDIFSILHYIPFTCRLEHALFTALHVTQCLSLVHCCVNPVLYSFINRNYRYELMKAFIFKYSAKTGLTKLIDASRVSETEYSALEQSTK
`CN(C)C(=O)[C@@H]1CN(CC2CCCC2)CC[C@H]1NC(=O)c1cc(-c2ccc(F)cc2F)on1` [Example 2.03] had a pIC50 of 7.13.

Regarding `CCN1CC[C@@H](NC(=O)c2cc(-c3ccc(F)cc3F)on2)[C@H](C(=O)N(C)CCc2ccccc2)C1` [Example 2.004], the pIC50 is 6.93.

In turn, `C[C@@H](NC(=O)[C@@H]1CN(C2CCCC2)CC[C@H]1NC(=O)c1cc(-c2c(F)cc(F)cc2F)on1)C1CCC1` (racemic) [Example 1.138, (3R*,4R*)-1-Cyclopentyl-4-{[5-(2,4,6-trifluoro-phenyl)-isoxazole-3-carbonyl]-amino}-piperidine-3-carboxylic acid ((R)-1-cyclobutyl-ethyl)-amide] showed a pIC50 of 6.09.

Consider `O=C(N[C@@H]1CCN(C2CCCCC2)C[C@H]1C(=O)NC1(c2ccccn2)CC1)c1cn(-c2ccc(F)cc2F)nn1` (racemic) [Example 1.165, rac-(3R*,4R*)-1-Cyclohexyl-4-{[1-(2,4-difluoro-phenyl)-1H-[1,2,3]triazole-4-carbonyl]-amino}-piperidine-3-carboxylic acid (1-pyridin-2-yl-cyclopropyl)-amide], for which the pIC50 was 7.04. Compared with the last molecule, the pIC50 is 0.95 log units higher.

`COc1ccccc1C(C)NC(=O)[C@H]1CN(CC2CC2)CC[C@@H]1NC(=O)c1cc(-c2ccc(F)cc2F)on1` (single isomer, unassigned) [Example 4.072a] had a pIC50 of 8.10.

`CC(C)(CF)NC(=O)[C@@H]1CN(C2CCCCC2)CC[C@H]1NC(=O)c1cc(-c2ccc(F)cc2F)on1` (racemic) [Example 1.079, rac-(3R*,4R*)-1-Cyclohexyl-4-{[5-(2,4-difluoro-phenyl)-isoxazole-3-carbonyl]-amino}-piperidine-3-carboxylic acid (2-fluoro-1,1-dimethyl-ethyl)-amide] had a pIC50 of 6.29.

Regarding `O=C(N[C@H]1CCN(CC2CC2)C[C@@H]1C(=O)NC1(c2cncnc2)CC1)c1cc(-c2ccc(F)cc2F)on1` [Example 4.081], the pIC50 was 6.37.

`O=C(N[C@H]1CCN(CC2(F)CC2)C[C@@H]1C(=O)NC1(c2ncccn2)CC1)c1nnc(-c2ccc(F)cc2F)s1` [Example 2.106] showed a pIC50 of 7.89.

As for `C[C@@H](NC(=O)[C@@H]1CN(C2CCCC2)CC[C@H]1NC(=O)c1cc(-c2ccc(F)cc2F)no1)c1ccccn1` (relative stereo) [Example 1.126, (3R*,4R*)-1-Cyclopentyl-4-{[3-(2,4-difluoro-phenyl)-isoxazole-5-carbonyl]-amino}-piperidine-3-carboxylic acid ((R)-1-pyridin-2-yl-ethyl)-amide], the pIC50 was 7.31.

Turning to `CN(C)C(=O)[C@@H]1CN(C2CC(C)(C)C2)CC[C@H]1NC(=O)c1cc(-c2ccc(F)cc2F)on1` [Example 2.031], the pIC50 was 6.25. Against the preceding molecule, the pIC50 is 1.06 log units lower.

For the molecule `CN(C)C(=O)[C@@H]1CN(CC(C)(C)C)CC[C@H]1NC(=O)c1cc(-c2ccc(F)cc2F)on1` [Example 2.02], the pIC50 is 6.61.

On to `O=C(N[C@@H]1CCN(C2CCCCC2)C[C@H]1C(=O)NCCN1CCCC1=O)c1cc(-c2ccc(F)cc2F)on1` (racemic) [Example 1.041, rac-(3R*,4R*)-1-Cyclohexyl-4-{[5-(2,4-difluoro-phenyl)-isoxazole-3-carbonyl]-amino}-piperidine-3-carboxylic acid [2-(2-oxo-pyrrolidin-1-yl)-ethyl]-amide], for which the pIC50 was 7.04. Against the preceding molecule, the pIC50 is 0.43 log units higher.

Regarding `C[C@@H](NC(=O)[C@H]1CN(CC2CC2)CC[C@@H]1NC(=O)c1cc(-c2ccc(F)cc2F)on1)c1cccc(Br)c1` [Example 4.075], the pIC50 was 8.70.

For the molecule `O=C(N[C@@H]1CCN(CC2CC2)C[C@H]1C(=O)NC1(c2ccccn2)CC1)c1ncc(-c2ccc(F)cc2F)o1` (racemic) [Example 3.015, rac-(3R*,4R*)-1-Cyclopropylmethyl-4-{[5-(2,4-difluoro-phenyl)-oxazole-2-carbonyl]-amino}-piperidine-3-carboxylic acid (1-pyridin-2-yl-cyclopropyl)-amide], the pIC50 is 6.77.

`COCC(C)(C)NC(=O)[C@@H]1CN(C2CCCC2)CC[C@H]1NC(=O)c1cn(-c2ccc(F)cc2F)nn1` (racemic) [Example 1.109, rac-(3R*,4R*)-1-Cyclopentyl-4-{[1-(2,4-difluoro-phenyl)-1H-[1,2,3]triazole-4-carbonyl]-amino}-piperidine-3-carboxylic acid (2-methoxy-1,1-dimethyl-ethyl)-amide]: the pIC50 is 6.04.

Molecule `O=C(N[C@@H]1CCN(C2CCCCC2)C[C@H]1C(=O)NC1(c2ccc(F)cn2)CC1)c1cc(-c2c(F)cc(F)cc2F)on1` (racemic) [Example 1.143, rac-(3R*,4R*)-1-Cyclohexyl-4-{[5-(2,4,6-trifluoro-phenyl)-isoxazole-3-carbonyl]-amino}-piperidine-3-carboxylic acid [1-(5-fluoro-pyridin-2-yl)-cyclopropyl]-amide] showed a pIC50 of 6.14.

`CC(NC(=O)[C@H]1CN(C2CCCCC2)CC[C@@H]1NC(=O)c1cc(-c2ccc(F)cc2F)on1)c1ncon1` (some centres unmarked) [Example 4.007] gave a pIC50 of 7.28. This pIC50 lies 1.14 log units higher than the previous one.

`O=C(N[C@@H]1CCN(C2CCCC2)C[C@H]1C(=O)N1CCC1)c1cc(-c2c(F)cc(F)cc2F)on1` (racemic) [Example 1.106, rac-5-(2,4,6-Trifluoro-phenyl)-isoxazole-3-carboxylic acid [(3R*,4R*)-3-(azetidine-1-carbonyl)-1-cyclopentyl-piperidin-4-yl]-amide] showed a pIC50 of 6.61.

`C[C@H]([C@@H](C)O)N1CC[C@@H](NC(=O)c2cc(-c3ccc(F)cc3F)on2)[C@H](C(=O)N(C)CCc2ccccc2)C1` [Example 2.051] gave a pIC50 of 7.38.

`CC(NC(=O)[C@H]1CN(C2CCCCC2)CC[C@@H]1NC(=O)c1cc(-c2ccc(F)cc2F)on1)c1ccc(F)cn1` (some centres unmarked) [Example 4.008] had a pIC50 of 6.82.

On to `O=C(N[C@H]1CCN(C2CCC2)C[C@@H]1C(=O)NC1(c2cccc[n+]2[O-])CC1)c1cc(-c2ccc(F)cc2F)on1` [Example 2.063], for which the pIC50 was 6.66.

For `C[C@@H](NC(=O)[C@@H]1CN(CC2CC2)CC[C@H]1NC(=O)c1cc(-c2c(F)cc(F)cc2F)on1)c1ccccn1` (relative stereo) [Example 1.123, (3R*,4R*)-1-Cyclopropylmethyl-4-{[5-(2,4,6-trifluoro-phenyl)-isoxazole-3-carbonyl]-amino}-piperidine-3-carboxylic acid ((R)-1-pyridin-2-yl-ethyl)-amide], the pIC50 is 7.82. Compared with the last molecule, the pIC50 is 1.16 log units higher.

`O=C(N[C@@H]1CCN(C2CCCCC2)C[C@H]1C(=O)N1CCC(c2ccccn2)C1)c1cc(-c2ccc(F)cc2F)on1` (relative stereo) [Example 1.089, 5-(2,4-Difluoro-phenyl)-isoxazole-3-carboxylic acid [(3R*,4R*)-1-cyclohexyl-3-((3RS)-3-pyridin-2-yl-pyrrolidine-1-carbonyl)-piperidin-4-yl]-amide] gave a pIC50 of 6.33.

With `CN(C)C(=O)[C@@H]1CN(C2CCCC2)CC[C@H]1NC(=O)c1ncc(-c2ccc(F)cc2F)o1` (racemic) [Example 3.017, rac-(3R*,4R*)-1-Cyclopentyl-4-{[5-(2,4-difluoro-phenyl)-oxazole-2-carbonyl]-amino}-piperidine-3-carboxylic acid dimethylamide], the pIC50 was 6.18.

`CN(C)C(=O)[C@@H]1CN(C2CCC(C)(C)C2)CC[C@H]1NC(=O)c1cc(-c2ccc(F)cc2F)on1` (some centres unmarked) [Example 2.018] showed a pIC50 of 6.84.

On to `C[C@@H]1CCC[C@H]1N1CC[C@@H](NC(=O)c2cc(-c3ccc(F)cc3F)no2)[C@H](C(=O)NC2(c3ccccn3)CC2)C1` (relative stereo) [Example 1.175, (3R*,4R*)-4-{[3-(2,4-Difluoro-phenyl)-isoxazole-5-carbonyl]-amino}-1-((1RS,2RS)-2-Methyl-cyclopentyl)-piperidine-3-carboxylic acid (1-pyridin-2-yl-cyclopropyl)-amide], for which the pIC50 is 6.17.

Consider `COCC(C)(C)NC(=O)[C@@H]1CN(C2CCCCC2)CC[C@H]1NC(=O)c1cc(-c2ccc(F)cc2F)no1` (racemic) [Example 1.115, rac-(3R*,4R*)-1-Cyclohexyl-4-{[3-(2,4-difluoro-phenyl)-isoxazole-5-carbonyl]-amino}-piperidine-3-carboxylic acid (2-methoxy-1,1-dimethyl-ethyl)-amide], for which the pIC50 is 6.25.

As for `CN(C)C(=O)[C@@H]1CN(CC2CC2)CC[C@H]1NC(=O)c1cc(-c2ccc(F)cc2F)on1` [Example 2.045], the pIC50 was 6.94.

The molecule `Cc1cc(C)nc(C2(NC(=O)[C@H]3CN(C4CCCC4)CC[C@@H]3NC(=O)c3cc(-c4ccc(F)cc4F)on3)CC2)n1` [Example 1.184, (3S,4S)-1-Cyclopentyl-4-{[5-(2,4-difluoro-phenyl)-isoxazole-3-carbonyl]-amino}-piperidine-3-carboxylic acid [1-(4,6-dimethyl-pyrimidin-2-yl)-cyclopropyl]-amide] showed a negative-log IC50 (pIC50) of 8.52.

In turn, `C[C@@H]1CCC[C@H]1N1CC[C@@H](NC(=O)c2cc(-c3c(F)cc(F)cc3F)on2)[C@H](C(=O)NC2(c3ccccn3)CC2)C1` (relative stereo) [Example 1.172, (3R*,4R*)-1-((1RS,2RS)-2-Methyl-cyclopentyl)-4-{[5-(2,4,6-trifluoro-phenyl)-isoxazole-3-carbonyl]-amino}-piperidine-3-carboxylic acid (1-pyridin-2-yl-cyclopropyl)-amide] showed a pIC50 of 7.14.

The molecule `CN(C)C(=O)[C@@H]1CN(C2CCCCC2)CC[C@H]1NC(=O)c1nc(-c2ccc(F)cc2F)no1` (racemic) [Example 3.019, rac-(3R*,4R*)-1-Cyclohexyl-4-{[3-(2,4-difluoro-phenyl)-[1,2,4]oxadiazole-5-carbonyl]-amino}-piperidine-3-carboxylic acid dimethylamide] gave a pIC50 of 6.11.

Regarding `CC(NC(=O)[C@@H]1CN(C2CCCCC2)CC[C@H]1NC(=O)c1cc(-c2ccc(F)cc2F)on1)C1CCC1` (relative stereo) [Example 1.078, (3R*,4R*)-1-Cyclohexyl-4-{[5-(2,4-difluoro-phenyl)-isoxazole-3-carbonyl]-amino}-piperidine-3-carboxylic acid ((1RS)-1-cyclobutyl-ethyl)-amide], the pIC50 was 6.71.

For the origin of these results see US11306078B2, “Piperidine CXCR7 receptor modulators” (IDORSIA PHARMACEUTICALS LTD., priority 2016, dated 2022).
